Tests used:
NDM-HK [1] = test: Murine peritonitis infection, mucin-free model; format: in vivo, BALB/c mice; details: without mucin; MER 50 mg kg^−1 + CBS 50 mg kg^−1, up to 86 h
Text: (§1) All experiments were approved by, and performed in accordance with the guidelines approved by Committee on the Use of Live Animals in Teaching and Research (CULATR), the University of Hong Kong. A total of 6–8-week-old, female BALB/c mice (18–22 g) were purchased from Charles River Laboratories, Inc. and were used in all mouse studies. The animals were randomized to cages for each experiment.
In mucin-free survival experiment, the mice were infected with a dose of 5 × 10^7 CFU of NDM-HK in PBS. The mice received monotherapy of MER (50 mg kg^−1) or CBS (50 mg kg^−1), or combination therapy 0.5 h post infection (n = 5 for each group). Other experimental operations and conditions were kept the same as that in mucin-assisted model. Body weights and mice survival were monitored for endpoint till endpoint of the experiment.

NDM-Rosetta OX = test: Microdilution MIC assay; format: cell-based, E. coli; details: NDM-Rosetta OX
Procedure: For the test of NDM-Rosetta OX, the growth condition briefly goes as follow. Overnight culture of NDM-Rosetta was 1000-fold diluted into fresh LB medium and regrew to OD ~0.6. The overexpression of NDM-1 was induced by addition of 1 mM isopropyl β-D-1-thiogalactopyranoside (IPTG) for 4 h at 37 °C. The following susceptibility test was performed as described in the Microdilution MIC and MBC assay section in the methodology by using the resulting bacterial pellets with the supplementation of 200 µM IPTG.
(§2) Other procedures were kept strictly the same.

NDM-HK [2] = test: Time kill assay; format: cell-based, E. coli; details: MER 24 μg mL^-1 + CBS 64 μg mL^-1, 24 h, exponential phase
Procedure: Time kill assay was used to further explore the synergy between MER and Bi(III) compounds. In a typical assay, NDM-HK was cultured overnight and diluted 1:250 into LB broth at 37 °C for 3 h to reach log phase. The initial bacterial density was adjusted to ~10^7 CFU mL^−1 and then exposed to MER, Bi(III) compounds either alone or in combination. LB broth with no drugs served as a control. Aliquots of bacterial suspension were withdrawn at different time intervals (0, 1, 2, 4, 6, 8, and 24 h) for inspection of bacterial viability by agar plating. The concentrations of the drugs used in the test are 24 µg mL^−1 for MER, 64 µg mL^−1 for CBS, and 32 µg mL^−1 for Bi(NAC)3. Data from three independent experiments were averaged and plotted as log10 CFU mL^−1 vs. time (h) for each time point over 24 h. All assays were triplicated and performed three times on different days.

IMP-4 = test: IC50 enzyme inhibition assay; format: biochemical; details: MER substrate
Procedure: Freshly prepared 50 nM of Zn2-NDM-1, Zn2-VIM-2, or Zn2-IMP-4 in 50 mM HEPES/Na pH 7.0, 100 mM NaCl were first incubated with various concentrations of CBS for 1 h at 25 °C, then mixed with equal volume of 0.2 mM MER. The assay was performed in a 1 cm quartz cuvette using the kinetic mode on a Varian Cary50 UV-visible spectrophotometer at 25 °C. The decrease in absorbance at 300 nm due to ring-opening of MER was monitored every second for a duration of 10 min until the reaction was completed. The initial rates were extracted and calculated from each reaction curves for fitting IC50 curves.

E. coli BL21(DE3) = test: Microdilution MIC assay; format: cell-based
Text: as §2

E. coli Rosetta(DE3) = test: Microdilution MIC assay; format: cell-based
Text: as §2

E. coli ATCC 25922 = test: Microdilution MIC assay; format: cell-based
Text: as §2

NDM-HK [3] = test: Murine peritonitis infection, mucin-assisted model; format: in vivo, BALB/c mice; details: 2% mucin
Text: as §1
In mucin-assisted model, for infection with NDM-1-positive bacteria, an overnight culture of NDM-HK was performed 1:250 dilution in 100 mL LB broth and re-grew to about OD600 0.3 in a 500-mL flask after 2.5 h shaking at 37 °C, 250 rpm. Bacterial pellets were collected and washed by PBS buffer three times for further use. Mice were infected intraperitoneally (i.p.) with a dose of 1 × 10^5 CFU of bacteria in PBS supplemented with 2% mucin. […] Twice-daily treatment via i.p. injection was continued throughout the whole experimental course. For the infection with NDM-1-negative bacteria, all the operations of infection were similar to those used for NDM-HK, except that NDM-HK PCV was used as infection-causing bacteria. […] Twice-daily treatment via i.p. injection was continued throughout the whole experimental course. Body weights and mice survival were monitored till endpoint of the experiment.

NDM-HK PCV = test: Microdilution MIC and checkerboard assay; format: cell-based, E. coli
Procedure: The bacteria employed for cell-based and animal studies are listed in Supplementary Table 1. All the E. coli variants were made as described below. The NDM-HK PCV was screened by 20th-generation serial passages of NDM-HK in antibiotic-free medium.
MIC values were determined by standard broth micro-dilution method (Clinical and Laboratory Standards Institute (CLSI) M100-S20, 2010)[64]. Briefly, bacterial cells were cultured in LB broth overnight at 37 °C at 250 rpm and the OD was measured at 600 nm (OD600). The bacterial density was adjusted to about 1 × 10^6 CFU mL^−1 and checked by CFU counting on agar plates afterwards. Tested antibiotics or Bi(III) compounds were added triplicately into individual wells of flat-bottomed 96-well plates and performed 2-fold serial dilution, followed by addition of prepared bacterial inocula. The plate was then incubated at 37 °C for overnight. […] The MIC was determined as the lowest concentration of a drug that could inhibit the growth of microorganism by both visual reading and OD reading at 600 nm using a microtiter plate reader.
Other procedures were kept strictly the same. […] Synergism was defined when FICI ≤ 0.5, indifference was defined when FICI > 0.5 and < 4, and antagonism was defined when FICI≥4[65]. […] All of the determinations were performed at least in triplicate on different days.

Substance: colloidal bismuth subcitrate [CBS]
- mice survived, MER and CBS co-administrated (NDM-HK [1]): 40%
- MIC of MER in combination with CBS at 16 µg mL-1 (NDM-Rosetta OX): 128 µg/mL
- MIC of MER in combination with CBS at 32 µg mL-1 (NDM-Rosetta OX): 128 µg/mL
- MIC of MER in combination with CBS at 256 µg mL-1 (NDM-Rosetta OX): 32 µg/mL
- lowering of NDM-HK population in time kill curves (NDM-HK [2]): more than 1000 fold
- IC50 (IMP-4; IMP-4 50 nM, 1 h preincubation): 700 ± 80 nM
- maximal inhibition of MBL activity (IMP-4; IMP-4, dose-dependent): approximately 90%
- MIC of MER in combination with CBS at 16 µg mL-1 (E. coli BL21(DE3)): 0.03 µg/mL
- MIC of MER in combination with CBS at 32 µg mL-1 (E. coli BL21(DE3)): 0.03 µg/mL
- MIC of MER in combination with CBS at 256 µg mL-1 (E. coli BL21(DE3)): 0.03 µg/mL
- MIC of MER in combination with CBS at 16 µg mL-1 (E. coli Rosetta(DE3)): 0.03 µg/mL
- MIC of MER in combination with CBS at 32 µg mL-1 (E. coli Rosetta(DE3)): 0.03 µg/mL
- MIC of MER in combination with CBS at 256 µg mL-1 (E. coli Rosetta(DE3)): 0.03 µg/mL
- MIC of MER in combination with CBS at 16 µg mL-1 (E. coli ATCC 25922): 0.03 µg/mL
- MIC of MER in combination with CBS at 32 µg mL-1 (E. coli ATCC 25922): 0.03 µg/mL
- MIC of MER in combination with CBS at 256 µg mL-1 (E. coli ATCC 25922): 0.03 µg/mL
- protection from death, CBS monotherapy (NDM-HK [3]; i.p. twice daily from 4 h post infection, CBS 20 mg kg^−1 (Fig. 4f), within 48 h): failed to protect any of the mice from death
- mice survival rate, combination therapy of MER and CBS (NDM-HK [3]; i.p. twice daily, MER + CBS 20 mg kg^−1 (Fig. 4f)): 50%
- growth inhibition by CBS itself (NDM-HK PCV; NDM-1-negative NDM-HK PCV, even at 256 µg mL^-1): no or minor growth inhibition
- MIC of MER in combination with CBS at 16 µg mL-1 (NDM-HK PCV; NDM-HK PCV): 0.03 µg/mL
- MIC of MER in combination with CBS at 32 µg mL-1 (NDM-HK PCV; NDM-HK PCV): 0.03 µg/mL
- MIC of MER in combination with CBS at 256 µg mL-1 (NDM-HK PCV; NDM-HK PCV): 0.03 µg/mL
- FICI (NDM-HK PCV; NDM-HK PCV, MER + CBS): 2
